15 molecules from US10125134B2 (Mirati Therapeutics, Inc., priority 2016, dated 2018) can be followed below.

Like-named read-outs stand apart in the source and are kept apart here.

A word on the IC50: it is the concentration that inhibits the measured activity by half.

The target of assay [1] is KRas G12C (Homo sapiens, UniProt P01116, C118S/C51S/C80L/G12C). Nature of the assay: KRas G12C Modification Assay (LCMS detection of covalent adduct). In kind it is binding. The note with it: normalized percent of control; tested at 5 μM concentration for 3 hours. An outline of the steps:
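Cys-light KRas G12C mutant protein incubated with compound in K-Ras assay buffer, reactions quenched at set time points with 25 mM acetic acid and analysed by intact-protein LC/MS on a C-3 column. Deconvoluted mass heights expressed as percent of control (POC) relative to compound-free protein.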

Assay [2] deals with NCI-H358 cells (express KRas G12C), Phospho-ERK. The assay is described as follows: Cellular inhibition of KRas G12C: Phospho-ERK in NCI-H358 cells. The note with it: pERK(Thr202/Tyr204) normalized with GAPDH, NCI-H358 cells, 3 hours, read-out: IC50. In kind it is cell-based. An outline of the steps:
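IC50 derived by 4-parameter fit of GAPDH-normalized pERK(Thr202/Tyr204) signal, as percent of DMSO control. Signal came from in-cell immunodetection with infrared secondaries after 3 h compound exposure of KRas G12C NCI-H358 cells at 0.5% DMSO.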

In the case of `C=CC(=O)N1CCN(c2nc(OC[C@@H]3CCCN3C)nc3c2CCN(c2ccccc2C(F)F)C3)CC1CC#N` (stereo partly drawn) [Example 447, 2-(1-Acryloyl-4-(7-(2-(difluoromethyl)phenyl)-2-(((S)-1-methylpyrrolidin-2-yl)methoxy)-5,6,7,8-tetrahydropyrido[3,4-d]pyrimidin-4-yl)piperazin-2-yl)acetonitrile], the POC result in assay [1] is “C (“C”>50% POC)”. The IC50 in assay [2] (Homo sapiens, NCI-H358, 3 h) lay in the range of 0.1 to 1000 nM.
Regarding `C=CC(=O)N1CCN(c2nc(OC[C@H]3CN(C)CCO3)nc3c2CCN(c2cccc4ccccc24)C3)C[C@@H]1CC#N` [Example 448, 2-((S)-1-Acryloyl-4-(2-(((R)-4-methylmorpholin-2-yl)methoxy)-7-(naphthalen-1-yl)-5,6,7,8-tetrahydropyrido[3,4-d]pyrimidin-4-yl)piperazin-2-yl)acetonitrile], in assay [1], the POC result is “C (“C”>50% POC)”. The IC50 in assay [2] (Homo sapiens, NCI-H358, 3 h) fell in the range of 0.1 to 1000 nM.
Consider `C=CC(=O)N1CCN(c2nc(OC[C@H]3CN(C)C(C)(C)CO3)nc3c2CCN(c2cccc4ccccc24)C3)C[C@@H]1CC#N` [Example 450, 2-((S)-1-Acryloyl-4-(7-(naphthalen-1-yl)-2-(((R)-4,5,5-trimethylmorpholin-2-yl)methoxy)-5,6,7,8-tetrahydropyrido[3,4-d]pyrimidin-4-yl)piperazin-2-yl)acetonitrile], for which the POC entry in assay [1] is on record as “C (“C”>50% POC)”. For the same molecule, the IC50 in assay [2] (Homo sapiens, NCI-H358, 3 h) lay in the range of 0.1 to 1000 nM.
The corresponding values for `C=CC(=O)N1CCN(c2nc(OC[C@@H]3CCCN3C)nc3c2CCN(c2c(C)c(C)cc4[nH]ncc24)C3)CC1` [Example 451, 1-[4-[7-(5,6-dimethyl-1H-indazol-4-yl)-2-[[(2S)-1-methylpyrrolidin-2-yl]methoxy]-6,8-dihydro-5H-pyrido[3,4-d]pyrimidin-4-yl]piperazin-1-yl]prop-2-en-1-one] are “C (“C”>50% POC)” and 0.1 to 1000 nM.
The corresponding values for `C=CC(=O)N1CCN(c2nc(OCCN3CCC(F)(F)CC3)nc3c2CCN(c2cccc4cccc(Cl)c24)C3)C[C@@H]1CC#N` [Example 452, 2-[(2S)-4-[7-(8-chloro-1-naphthyl)-2-[2-(4,4-difluoro-1-piperidyl)ethoxy]-6,8-dihydro-5H-pyrido[3,4-d]pyrimidin-4-yl]-1-prop-2-enoyl-piperazin-2-yl]acetonitrile] are “C (“C”>50% POC)” and 0.1 to 1000 nM.
For `C=CC(=O)N1CCN(c2nc(OCCN3CCCC(F)(F)C3)nc3c2CCN(c2cccc4cccc(Cl)c24)C3)C[C@@H]1CC#N` [Example 453, 2-[(2S)-4-[7-(8-chloro-1-naphthyl)-2-[2-(3,3-difluoro-1-piperidyl)ethoxy]-6,8-dihydro-5H-pyrido[3,4-d]pyrimidin-4-yl]-1-prop-2-enoyl-piperazin-2-yl]acetonitrile] the same measures were “C (“C”>50% POC)” and 0.1 to 1000 nM.
For `C=CC(=O)N1CCN(c2nc(OC[C@@H]3CCCN3C)nc3c2CCN(c2c(C)c(C)cc4[nH]ccc24)C3)CC1` [Example 454, 1-[4-[7-(5,6-dimethyl-1H-indol-4-yl)-2-[[(2S)-1-methylpyrrolidin-2-yl]methoxy]-6,8-dihydro-5H-pyrido[3,4-d]pyrimidin-4-yl]piperazin-1-yl]prop-2-en-1-one], the POC result in assay [1] is “C (“C”>50% POC)”. Besides, in assay [2] (Homo sapiens, NCI-H358, 3 h), the IC50 lay in the range of 0.1 to 1000 nM.
For `CC#CC(=O)N1CCN(c2nc(OC[C@@H]3CCCN3C)nc3c2CCN(c2cccc4cccc(C)c24)C3)C[C@@H]1CC#N` [Example 455, 2-((S)-1-(but-2-ynoyl)-4-(7-(8-methylnaphthalen-1-yl)-2-(((S)-1-methylpyrrolidin-2-yl)methoxy)-5,6,7,8-tetrahydropyrido[3,4-d]pyrimidin-4-yl)piperazin-2-yl)acetonitrile] the same measures were “C (“C”>50% POC)” and 0.1 to 1000 nM.
For `Cc1cccc2cccc(N3CCc4c(nc(OC[C@@H]5CCCN5C)nc4N4CCN(C(=O)/C=C/CN(C)C)[C@@H](CC#N)C4)C3)c12` [Example 456, 2-((S)-1-((E)-4-(dimethylamino)but-2-enoyl)-4-(7-(8-methylnaphthalen-1-yl)-2-(((S)-1-methylpyrrolidin-2-yl)methoxy)-5,6,7,8-tetrahydropyrido[3,4-d]pyrimidin-4-yl)piperazin-2-yl)acetonitrile] the same measures were “C (“C”>50% POC)” and 0.1 to 1000 nM.
The corresponding values for `Cc1cccc2cccc(N3CCc4c(nc(OC[C@@H]5CCCN5C)nc4N4CCN(C(=O)/C=C/CN5CCOCC5)[C@@H](CC#N)C4)C3)c12` [Example 457, 2-[(2S)-4-[7-(8-methyl-1-naphthyl)-2-[[(2S)-1-methylpyrrolidin-2-yl]methoxy]-6,8-dihydro-5H-pyrido[3,4-d]pyrimidin-4-yl]-1-[(E)-4-morpholinobut-2-enoyl]piperazin-2-yl]acetonitrile] are “C (“C”>50% POC)” and 0.1 to 1000 nM.
As for `C=CC(=O)N1CCN(c2nc(OC[C@@H]3CCCN3C)nc3c2CCN(c2cccc4cccc(C)c24)C3)C[C@H]1CC#N` [Example 458, 2-[(2R)-4-[7-(8-methyl-1-naphthyl)-2-[[(2S)-1-methylpyrrolidin-2-yl]methoxy]-6,8-dihydro-5H-pyrido[3,4-d]pyrimidin-4-yl]-1-prop-2-enoyl-piperazin-2-yl]acetonitrile], the POC entry in assay [1] is on record as “C (“C”>50% POC)”. For the same molecule, the IC50 in assay [2] (Homo sapiens, NCI-H358, 3 h) lay within 0.1 to 1000 nM.
Turning to `C=CC(=O)N1CCN(c2nc(OC[C@@H]3CCCN3C)nc3c2CCN(c2c(C)c(C)cc4[nH]ncc24)C3)C[C@@H]1CC#N` [Example 459, 2-[(2S)-4-[7-(5,6-dimethyl-1H-indazol-4-yl)-2-[[(25)-1-methylpyrrolidin-2-yl]methoxy]-6,8-dihydro-5H-pyrido[3,4-d]pyrimidin-4-yl]-1-prop-2-enoyl-piperazin-2-yl]acetonitrile], the POC result in assay [1] was “C (“C”>50% POC)”. The IC50 in assay [2] lay within 0.1 to 1000 nM.
As for `Cc1cccc2cccc(N3CCc4c(nc(OCCC(=O)N(C)C)nc4N4CCN(C(=O)/C=C/CN(C)C)[C@@H](CC#N)C4)C3)c12` [Example 460, (S,E)-3-((4-(3-(cyanomethyl)-4-(4-(dimethylamino)but-2-enoyl)piperazin-1-yl)-7-(8-methylnaphthalen-1-yl)-5,6,7,8-tetrahydropyrido[3,4-d]pyrimidin-2-yl)oxy)-N,N-dimethylpropanamide], in assay [1], the POC result is given as “C (“C”>50% POC)”. In assay [2] (Homo sapiens), the IC50 lay in the range of 0.1 to 1000 nM.
As for `C=CC(=O)N1CCN(c2nc(OC[C@@H]3CCCN3C)nc3c2CCN(c2cccc4cccc(Br)c24)C3)C[C@@H]1CC#N` [Example 461, 2-((S)-1-acryloyl-4-(7-(8-bromonaphthalen-1-yl)-2-(((S)-1-methylpyrrolidin-2-yl)methoxy)-5,6,7,8-tetrahydropyrido[3,4-d]pyrimidin-4-yl)piperazin-2-yl)acetonitrile], in assay [1], the POC result is “C (“C”>50% POC)”. For the same molecule, the IC50 in assay [2] (Homo sapiens, NCI-H358, 3 h) was in the range of 0.1 to 1000 nM.
The corresponding values for `C=CC(=O)N1CCN(c2nc(OC[C@@H]3CCCN3C)nc3c2CCN(c2cccc4ccccc24)C3)[C@@H](C#N)C1` [Example 462, (R)-4-acryloyl-1-(2-(((S)-1-methylpyrrolidin-2-yl)methoxy)-7-(naphthalen-1-yl)-5,6,7,8-tetrahydropyrido[3,4-d]pyrimidin-4-yl)piperazine-2-carbonitrile] are “C (“C”>50% POC)” and > 1000 nM.
